Converted amounts (≈) assume the structure as drawn. Where a name gives a salt, the structure may show the parent alone. Read-outs that look alike come from different tables or passages of the source.

Series [1] has as its system MDCK-chAbcg2/abcb1 monolayers. Briefly: Transport mechanism of TMS-NLCs across monolayers (tracers, 4 °C, endocytosis inhibitors). The method, then:
To investigate the transport mechanism of TMS-NLCs, propranolol (100 µM) and lucifer yellow (225 µM) as the tracers were added to the AP side and co-incubated with TMS-NLCs for 4 h. The tracers that passed through monolayers to the BL side were quantified. The transport experiments of TMS-NLCs across MDCK-chAbcg2/abcb1 monolayers were also conducted at 4 °C. To get further insights into the transcellular transport of TMS-NLCs, the monolayers were pre-incubated with various endocytosis inhibitors on the AP side for 1 h and then co-incubated with TMS-NLCs for 4 h. The determination of TMS in the samples collected from the BL side was analyzed by HPLC.

The subject of a further series is MDCK cells. The experiment in a line: MTT cell viability. The class given is cell-based, canine. Particulars: up to 50 µg/mL, 4 h, Figure 4A. On the procedure:
(§1) MTT assay was used to evaluate cell viability. Cells were seeded on 96-well plates 1 × 10^4 cells per well, cultured for 24 h until 90% confluent, and exposed to different concentrations of NLCs for 4 h. Then, the medium was replaced with 20 µL MTT (5 mg/mL) and 180 µL serum-free medium. After incubation for 4 h, the medium containing MTT was substituted with 150 µL DMSO. The absorbance of formazan was measured by a microplate reader (BIO-RAD, Hercules, CA, USA) at 490 nm. Untreated cells were taken as the control. The cytotoxicity was expressed as the cell viability compared with the untreated cells. Similarly, the cytotoxicity of endocytosis inhibitors were also evaluated, and the concentrations of each drug were chosen on the basis of the published literature, and EIPA (50 µM), chlorpromazine (30 µM), dynasore (80 µM), and MβCD (2 mM) were used in the present study.

In the next series the test system is MDCK-chAbcg2/Abcb1 cells. The experiment in a line: MTT cell viability. The class given is cell-based, canine. The note with it: up to 50 µg/mL, 4 h, Figure 4B. The method, then: as §1
Series [2] in a line: In vitro drug release by the dialysis bag method. The class given is physicochemical. Particulars: 48 h. On the procedure: The in vitro drug release behavior of TMS-NLCs was carried out over 48 h by the dialysis bag method. Briefly, TMS-NLCs or the corresponding active pharmaceutical ingredient (API) of TMS (3 mL, 10 mg/mL) was added into a dialysis bag (MWCO of 100 kD, 16 mm, and 0.79 mL/cm), immersed in the simulated gastric or intestinal juice (500 mL) at 37 °C, and stirred under the magnetic stirrer with 100 rpm. At the set time, the samples (1 mL) were taken out and substituted by the same volume of fresh receptor fluids, and the TMS concentrations were detected by HPLC.
In this study, the concentrations of TMS in various media were detected with HPLC (Thermo U3000, Thermo Fisher Scientific, New York, NY, USA) with a C18 Reverse-phase column (5 µm, 4.6 mm inner diameter × 250 mm length, Agilent, Palo Alto, CA, USA). The mobile phase was acetonitrile–tetrahydrofuran–water–n-dibutylamine phosphate buffer salt solution (12:5.5:80:2.5; v/v). The column temperature was 30 °C, the injection volume was 20 µL, the UV detection wavelength was 291 nm, and the flow rate was 1 mL/min. The samples were filtered through a 0.22 µm filter membrane before HPLC analysis. The concentration of TMS was calculated using the standard curve equation (y = 31.314x − 2.0603, R^2 = 0.9999) for HPLC analysis of TMS, which had the good linear pattern over a range from 1 to 20 µg/mL as reported previously.

In series [3] the test system is Salmonella Typhimurium strain 1344. Briefly: Microdilution broth MIC. Type of series: cell-based. Particulars: Salmonella enterica; S. Typhimurium. On the procedure: (§2) Microdilution broth assay was carried out to evaluate the antibacterial activity of API and TMS-NLCs according to the guidelines of the CLSI. The minimal inhibitory concentration (MIC) was determined against 2 strains of Gram-positive bacteria and 2 strains of Gram-negative bacteria. Staphylococcus aureus QWJAB25 and Streptococcus agalactiae A27 were isolated from milk in a scale farm located in Yangzhou, Jiangsu Province in 2019. The Escherichia coli used in this study was ATCC 25922. The Salmonella Typhimurium strain 1344 was donated by Associate Professor Jian Lin from College of Life Sciences, Nanjing Agricultural University.
In general terms: Broth dilution looks for growth in wells or tubes with falling amounts of substance.

The test system of series [4] is Escherichia coli ATCC 25922. The experiment in a line: Microdilution broth MIC. The class given is cell-based. The note with it: ATCC25922, E. coli. On the procedure: as §2
For series [5], the system named is Streptococcus agalactiae A27. The experiment in a line: Microdilution broth MIC. Type of series: cell-based. Particulars: S. agalactiae. On the procedure: as §2
Series [6] has as its system Staphylococcus aureus QWJAB25. Briefly: Microdilution broth MIC. The class given is cell-based. Particulars: S. aureus. The method, then:
as §2

Another series relates to chAbcg2/Abcb1 (P-gp). Briefly: Bidirectional transport of API and TMS-NLCs across cell monolayers. The class given is in vitro ADME, canine. The note with it: dog, MDCK-chAbcg2/Abcb1; for Papp A→B at 4 h, 10 µg/mL / Papp B→A at 4 h, 10 µg/mL: 37 °C; for efflux ratio at 4 h, 10 µg/mL: read-out: ER. The method, then: (§3) MDCK and MDCK-chAbcg2/Abcb1 cells were seeded on 12-well Transwell® polycarbonate inserts at a density of 2 × 10^5 cells per well to constitute in vitro cell monolayer models. The apical side (AP) of the insert was filled with 0.5 mL medium, and the basolateral (BL) side was filled with 1.5 mL medium. The medium was replaced every two days. It took 5~7 days to form an intact cell monolayer.
(§4) The permeability efficiency was evaluated by comparing the bidirectional transport between API and TMS-NLCs. Briefly, apical-to-basolateral (AP→BL) and basolateral-to-apical (BL→AP) transport across monolayers was conducted by adding 10 µg/mL API or TMS-NLCs to donor compartments and incubating at 37 °C for 4 h. Then, the samples from receiver compartments were taken to analyze TMS concentrations by HPLC.
(§5) TMS is the substrate of glycoprotein (P-gp). To evaluate the inhibition effect of TMS-NLCs on P-gp mediated efflux, cell monolayers were incubated with the P-gp inhibitor verapamil (100 µM) for 1 h, and then, the medium was replaced with a mixture of verapamil and API or TMS-NLCs on one side and co-incubated for 4 h for bidirectional transport assay.
(§6) The efflux ratio (ER) and net efflux ratio (NER) values were obtained from the following equation [27, 28]:ER = Papp(BL→AP)/Papp(AP→BL) NER = ER(MDCK-chAbcg2/Abcb1)/ER(MDCK).

The subject of series [7] is MDCK-chAbcg2/Abcb1 cell monolayers. The description is as above. Type of series: in vitro ADME, canine. Particulars: ER(MDCK-chAbcg2/Abcb1)/ER(MDCK). The method, then: as §3, §4, §5, §6
Assay in series [8]: as above
The note with it: dog, MDCK; for Papp A→B at 4 h, 10 µg/mL / Papp B→A at 4 h, 10 µg/mL: 37 °C; for efflux ratio at 4 h, 10 µg/mL: read-out: ER. Type of series: in vitro ADME, canine. On the procedure:
as §3, §4, §5, §6

For series [9], the system named is MDCK-chAbcg2/Abcb1 cell monolayers. The experiment in a line: Permeability of cell monolayers (tracers). The class given is in vitro ADME, canine. Particulars: AP to BL, 4 h, 37 °C, lucifer yellow 225 µM, propranolol 100 µM. On the procedure:
as §3
(§7) During the cultivation, the integrity of cell monolayers was evaluated by the transepithelial electrical resistance (TEER) values measured with Epithelial Volt-Ohm Meter (Millipore, Burlington, MA, USA). Monolayers with TEER values over 500 and 1700 Ω·cm^2 of MDCK and MDCK-chAbcg2/Abcb1 cells respectively were used for drug transport experiments, and the TEER values were also checked after the transport experiment to guarantee the integrity of cell monolayers. TEER = (Rtotal − Rblank) × A (Ω·cm^2)
(§8) After a week of cultivation, the AP side was filled with 0.5 mL propranolol (100 µM) or lucifer yellow (225 µM) and 1.5 mL of Hank’s solution on the BL side for 4 h at 37 °C. The solution on the BL side was collected for fluorescence analysis. The detection wavelengths were 428/540 nm ([…]) and 290/330 nm (propranolol), respectively. The apparent permeability coefficient (Papp) was calculated according to the following equation [24]:Papp = dQ/(dt * AC0) where dQ/dt is the transport rate in the receiver solution, A is the membrane surface area, and C0 is the initial concentration in the donor compartment.

A further series concerns MDCK cell monolayers. Briefly: Permeability of cell monolayers (tracers). Type of series: in vitro ADME, canine. Particulars: AP to BL, 4 h, 37 °C, lucifer yellow 225 µM, propranolol 100 µM. On the procedure:
as §3, §7, §8

Series [10] can be described thus: Permeability of cell monolayers (tracers). Type of series: in vitro ADME, canine. The note with it: dog, 37 °C, lucifer yellow 225 µM, propranolol 100 µM. The method, then:
as §3, §7, §8

A word on the Papp: it is the rate of passage across a membrane or cell layer, normalised by area and donor concentration. A high value points to ready permeation. The term MIC denotes the lowest concentration found to suppress growth. Read a high MIC as a less susceptible organism. A word on the Papp A→B: it is how fast a substance crosses the layer from the apical side. Low readings indicate slow passage, high ones fast passage. One may read the Papp B→A as how fast a substance crosses the layer from the basolateral side. Consider `CC[C@H]1OC(=O)C[C@@H](O)[C@H](C)[C@@H](O[C@@H]2O[C@H](C)[C@@H](O)[C@H](N(C)C)[C@H]2O)[C@@H](CCN2C[C@H](C)C[C@H](C)C2)C[C@@H](C)C(=O)/C=C/C(C)=C/[C@@H]1CO[C@@H]1O[C@H](C)[C@@H](O)[C@@H](OC)[C@H]1OC` [API, Tilmicosin], for which, in [1], the “Papp at 4 °C” value is listed as “under the detection limit”. Also, the “cell viability compared to untreated cells” value in the series with MDCK cells and in the series on MDCK-chAbcg2/Abcb1 cells was “not significantly decreased” throughout. Also, the in vitro release in [2] (SGF, pH 1.2, 37 °C) is about 80%; in [2] (SIF, pH 6.8, 37 °C) it was about 80%. Moreover, the MIC in [3] is 16 µg/mL (≈ 18.4 µM); in [4], 16 µg/mL (≈ 18.4 µM); in series [5], 16 µg/mL (≈ 18.4 µM); in series [6], under 0.5 µg/mL. In addition, the apical-to-basolateral permeability (Papp A→B) at 4 h, 10 µg/mL was found to be 0.39 ± 0.04 ×10⁻⁶ cm/s in the series with chAbcg2/Abcb1 (P-gp) (with verapamil (100 µM)), 0.4 ± 0.02 ×10⁻⁶ cm/s with chAbcg2/Abcb1 (P-gp) (without verapamil), 0.38 ± 0.02 ×10⁻⁶ cm/s in [8] (with verapamil (100 µM)) and 0.42 ± 0.04 ×10⁻⁶ cm/s in series [8] (without verapamil). For the same compound, the apparent permeability from basolateral to apical (Papp B→A) at 4 h, 10 µg/mL with chAbcg2/Abcb1 (P-gp) (with verapamil (100 µM)) is 0.39 ± 0.07 ×10⁻⁶ cm/s; with chAbcg2/Abcb1 (P-gp) (without verapamil), 1.06 ± 0.03 ×10⁻⁶ cm/s; in series [8] (with verapamil (100 µM)), 0.41 ± 0.04 ×10⁻⁶ cm/s; in [8] (without verapamil), 0.53 ± 0.02 ×10⁻⁶ cm/s. For the same compound, the efflux ratio at 4 h, 10 µg/mL amounted to 1 in the series on chAbcg2/Abcb1 (P-gp) (with verapamil (100 µM)), 2.63 in the series with chAbcg2/Abcb1 (P-gp) (without verapamil), 1.06 in series [8] (with verapamil (100 µM)) and 1.27 in [8] (without verapamil). Further, the NER is 0.94 in [7] (with verapamil (100 µM)) and 2.07 in [7] (without verapamil).
Consider lucifer yellow, for which the values for the Papp (in series [9]; with MDCK cell monolayers) were 0.13 ± 0.01 ×10^−6 cm/s and 0.22 ± 0.06 ×10^−6 cm/s, respectively. Also, in series [1] (AP side, 4 h, Figure 5A), the “Papp of tracer co-incubated with TMS-NLCs versus without” value was “no significant difference”.
As for `CC(C)NCC(O)COc1cccc2ccccc12` (centres unmarked) [Propranolol, propranolol hydrochloride], the apparent permeability coefficient (Papp) at 4 h, 100 µM in series [10] (MDCK, AP to BL) is 16.2 ± 0.65 ×10⁻⁶ cm/s; in series [10] (MDCK-chAbcg2/Abcb1, AP to BL) it was 17.6 ± 0.64 ×10⁻⁶ cm/s. Further, in series [1], the “Papp of tracer co-incubated with TMS-NLCs versus without” value is “no significant difference”.

The values are drawn from article PMC7996536, “Optimization of Tilmicosin-Loaded Nanostructured Lipid Carriers Using Orthogonal Design for Overcoming Oral Administration Obstacle” (Pharmaceutics, 2021).
